One experiment deals with PD-1/PD-L1 (Homo sapiens, UniProt Q9NZQ7). In words: PD-1/PD-L1 biochemical protein-protein interaction assay (ALPHA). It is filed as binding. The settings on record: 0.3 nM His tagged PD-L1, 2.5 nM biotinylated Fc-PD-1, 60 minutes at 25° C., read-out: IC50 PD-L1-PD-1 Alpha IC50-mono PD-L1-fcP-D1. The method in brief:
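Compounds are tested for blocking the PD-1/PD-L1 extracellular-domain interaction using an ALPHA bead assay, in which inhibition lowers the luminescent signal. Reactions run 60 min at 25° C with 0.3 nM His-PD-L1 and 2.5 nM biotinylated Fc-PD-1. IC50 values come from four-parameter fits.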

A further experiment addresses T1, PD-1/PD-L1 interaction (Homo sapiens, UniProt Q9NZQ7).
T1 construct: expressed in transfected cells; host or cells: CHO cells (aAPC-PD-L1) co-cultured with Jurkat cells overexpressing PD-1 and an NFAT-luciferase reporter
In words: PD-1/PD-L1 NFAT reporter co-culture assay. It is filed as cell-based. The following applies: Jurkat PD-1 NFAT-luciferase cells co-cultured with aAPC-PD-L1 CHO cells, 6 hrs at 37° C.; read-out: EC50 NFAT Luciferase. In a few lines:
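Compounds are scored by restoration of NFAT-luciferase signal in PD-1-expressing Jurkat cells cultured 6 h at 37 °C on CHO cells presenting anti-CD3 and PD-L1; EC50 values derive from four-parameter curve fitting.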

The next experiment addresses T2, PD-L1 (Homo sapiens, UniProt Q9NZQ7).
T2 construct: determine if they can specifically dimerize the extracellular domains of PD-L1
The experiment can be described thus: PD-L1/PD-L1 dimerization biochemical protein-protein interaction assay (ALPHA). It is filed as binding. The settings on record: compound-induced PD-L1 dimerization, head prints '1 nM' (0.5 nM His-tagged PD-L1 and 0.5 nM FLAG-tagged PD-L1), read-out: AC50 PDL1 Dimer Alpha 1 nM. In a few lines: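 ALPHA proximity assay of compound-induced dimerization of 0.5 nM His-tagged and 0.5 nM FLAG-tagged PD-L1 extracellular domains in Hepes pH 7.4 buffer, 2 h at 25 °C. Anti-His acceptor then anti-FLAG donor beads, 60 min each; AC50 from four-parameter fit.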

A word on the IC50: it is the concentration at which inhibition is half-maximal. As a reminder, the EC50 is the concentration at which the effect is half-maximal. As usually defined, the AC50 is the midpoint of the concentration-response curve, whichever way the signal moves.

T2 sequence (Q9NZQ7 19-238 limits assumed): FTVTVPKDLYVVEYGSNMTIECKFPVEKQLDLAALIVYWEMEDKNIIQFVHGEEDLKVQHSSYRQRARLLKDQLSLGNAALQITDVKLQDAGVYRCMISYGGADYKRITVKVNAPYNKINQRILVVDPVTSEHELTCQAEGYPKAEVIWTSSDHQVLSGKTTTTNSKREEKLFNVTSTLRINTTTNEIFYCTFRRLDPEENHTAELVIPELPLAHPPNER
T2 sequence (Q9NZQ7 19-238 limits assumed): as above
Chain of PD-1/PD-L1 (Q9NZQ7 19-238 limits assumed): as above
T1 sequence (Q9NZQ7 19-290): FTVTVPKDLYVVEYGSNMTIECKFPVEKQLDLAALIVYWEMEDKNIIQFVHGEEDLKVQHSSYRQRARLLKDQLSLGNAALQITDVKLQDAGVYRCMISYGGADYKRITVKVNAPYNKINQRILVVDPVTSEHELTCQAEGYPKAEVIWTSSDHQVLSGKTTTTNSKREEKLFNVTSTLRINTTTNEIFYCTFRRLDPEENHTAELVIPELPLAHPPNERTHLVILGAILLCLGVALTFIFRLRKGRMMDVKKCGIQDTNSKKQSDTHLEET

As to `Cc1c(COc2cc(OCc3cncc(C#N)c3)c(CN3CCCC[C@H]3C(=O)O)cc2Cl)cccc1-c1cccc(-c2ccc(OCCNCCO)cc2)c1C` [Example 344, (S)-1-(5-chloro-2-((5-cyanopyridin-3-yl)methoxy)-4-((4″-(2-((2-hydroxyethyl)amino)ethoxy)-2,2′-dimethyl-[1,1′:3′,1″-terphenyl]-3-yl)methoxy)benzyl)piperidine-2-carboxylic acid], the IC50 at PD-1/PD-L1 was found to be 0.064 nM. At PD-1/PD-L1 interaction, the EC50 worked out at 475 nM. In addition, the AC50 on PD-L1 amounted to 55 nM.
With `Cc1c(COc2cc(OCc3cncc(C#N)c3)c(CN3CC[C@@H](C(=O)O)C3)cc2Cl)cccc1-c1cccc(-c2ccc(OCCNCCO)cc2)c1C` [Example 345, (R)-1-(5-chloro-2-((5-cyanopyridin-3-yl)methoxy)-4-((4″-(2-((2-hydroxyethyl)amino)ethoxy)-2,2′-dimethyl-[1,1′:3′,1″-terphenyl]-3-yl)methoxy)benzyl)pyrrolidine-3-carboxylic acid], on PD-1/PD-L1, the IC50 amounted to 0.09 nM. In addition, the EC50 on PD-1/PD-L1 interaction is 552 nM. The AC50 on PD-L1 came out at 229 nM.
Turning to `Cc1c(COc2cc(OCc3cncc(C#N)c3)c(CNC[C@@H](O)CC(=O)O)cc2Cl)cccc1-c1cccc(NC(=O)c2ccc(CNC[C@@H](O)CC(=O)O)cn2)c1C` [Example 346, (S)-4-(((6-((3′-((4-((((S)-3-carboxy-2-hydroxypropyl)amino)methyl)-2-chloro-5-((5-cyanopyridin-3-yl)methoxy)phenoxy)methyl)-2,2′-dimethyl-[1,1′-biphenyl]-3-yl)carbamoyl)pyridin-3-yl)methyl)amino)-3-hydroxybutanoic acid], the IC50 at PD-1/PD-L1 is 0.074 nM. At PD-1/PD-L1 interaction, the EC50 worked out at 214 nM. On PD-L1, the AC50 is 181 nM.
As for `Cc1c(COc2cc(OCc3cncc(C#N)c3)c(CNC[C@@H](O)CC(=O)O)cc2Cl)cccc1-c1cccc(-c2ccc3c(c2)c(C)nn3CCNC[C@@H](O)CC(=O)O)c1C` [Example 347, (S)-4-((4-((3′-(1-(2-(((S)-3-carboxy-2-hydroxypropyl)amino)ethyl)-3-methyl-1H-indazol-5-yl)-2,2′-dimethyl-[1,1′-biphenyl]-3-yl)methoxy)-5-chloro-2-((5-cyanopyridin-3-yl)methoxy)benzyl)amino)-3-hydroxybutanoic acid], the IC50 on PD-1/PD-L1 worked out at 0.211 nM. The EC50 on PD-1/PD-L1 interaction was found to be 142 nM. Also, the AC50 on PD-L1 came out at 125 nM.
Regarding `Cc1c(COc2cc(OCc3cncc(C#N)c3)c(CNC[C@@H](O)CC(=O)O)cc2Cl)cccc1-c1cccc(-c2ccc3c(CCNC[C@@H](O)CC(=O)O)coc3c2)c1C` [Example 348, (S)-4-((4-((3′-(3-(2-(((S)-3-carboxy-2-hydroxypropyl)amino)ethyl)benzofuran-6-yl)-2,2′-dimethyl-[1,1′-biphenyl]-3-yl)methoxy)-5-chloro-2-((5-cyanopyridin-3-yl)methoxy)benzyl)amino)-3-hydroxybutanoic acid], the IC50 at PD-1/PD-L1 came to 0.122 nM. Moreover, the EC50 on PD-1/PD-L1 interaction stood at 381 nM. Also, the AC50 at PD-L1 is 80.4 nM.
In the case of `Cc1c(COc2cc(OCc3cncc(C#N)c3)c(CNC[C@@H](O)CC(=O)O)cc2Cl)cccc1-c1cccc(-c2ncc(COCCNC[C@@H](O)CC(=O)O)s2)c1C` [Example 350, (S)-4-((4-((3′-(5-((2-(((S)-3-carboxy-2-hydroxypropyl)amino)ethoxy)methyl)thiazol-2-yl)-2,2′-dimethyl-[1,1′-biphenyl]-3-yl)methoxy)-5-chloro-2-((5-cyanopyridin-3-yl)methoxy)benzyl)amino)-3-hydroxybutanoic acid], the IC50 on PD-1/PD-L1 was 0.105 nM. For the same compound, the EC50 at PD-1/PD-L1 interaction worked out at 527 nM. The AC50 at PD-L1 was 252 nM.
Taken in the same sequence, the figures for `N#Cc1cc(C#N)cc(COc2nc(OCc3cccc(-c4cccc(-c5ccc(OCCNCCO)cc5)c4Cl)c3Cl)c(Cl)cc2CNC[C@@H](O)CC(=O)O)c1` [Example 351, (S)-4-(((5-chloro-6-((2,2′-dichloro-4″-(2-((2-hydroxyethyl)amino)ethoxy)-[1,1′:3′,1″-terphenyl]-3-yl)methoxy)-2-((3,5-dicyanobenzyl)oxy)pyridin-3-yl)methyl)amino)-3-hydroxybutanoic acid] were 0.982 nM, 235 nM and 168 nM.
Consider `C[C@@](CO)(NCc1cc(Cl)c(OCc2cccc(-c3cccc(-c4ccc(OCCNCCO)cc4)c3Cl)c2Cl)nc1OCc1cc(C#N)cc(C#N)c1)C(=O)O` [Example 352, (S)-2-(((5-chloro-6-((2,2′-dichloro-4″-(2-((2-hydroxyethyl)amino)ethoxy)-[1,1′:3′,1″-terphenyl]-3-yl)methoxy)-2-((3,5-dicyanobenzyl)oxy)pyridin-3-yl)methyl)amino)-3-hydroxy-2-methylpropanoic acid], for which the IC50 at PD-1/PD-L1 is 0.207 nM. For the same compound, at PD-1/PD-L1 interaction, the EC50 was 105 nM. On PD-L1, the AC50 is 56.3 nM.
As to `Cc1c(COc2cc(OCc3cncc(C#N)c3)c(CNC[C@@H](O)CC(=O)O)cc2Cl)cccc1-c1cccc(-c2ccc(OC[C@@H](N)CO)cc2)c1C` [Example 353, (S)-4-((4-((4″-((S)-2-amino-3-hydroxypropoxy)-2,2′-dimethyl-[1,1′:3′,1″-terphenyl]-3-yl)methoxy)-5-chloro-2-((5-cyanopyridin-3-yl)methoxy)benzyl)amino)-3-hydroxybutanoic acid], on PD-1/PD-L1, the IC50 turned out to be 0.311 nM. For the same compound, the EC50 on PD-1/PD-L1 interaction turned out to be 153 nM. Moreover, at PD-L1, the AC50 came to 215 nM.
Turning to `Cc1c(COc2cc(OCc3cncc(C#N)c3)c(CNC[C@@H](O)CC(=O)O)cc2Cl)cccc1-c1cccc(-c2ccc(O[C@H]3CCCN(CCO)C3)cc2)c1C` [Example 354, (S)-4-((5-chloro-2-((5-cyanopyridin-3-yl)methoxy)-4-((4″-(((S)-1-(2-hydroxyethyl)piperidin-3-yl)oxy)-2,2′-dimethyl-[1,1′:3′,1″-terphenyl]-3-yl)methoxy)benzyl)amino)-3-hydroxybutanoic acid], at PD-1/PD-L1, the IC50 was 0.241 nM. Further, the EC50 at PD-1/PD-L1 interaction is 1880 nM. Besides, the AC50 at PD-L1 was 342 nM.
For the compound `COc1cc(OCc2cccc(-c3cccc(COc4cc(OC)c(CNC[C@@H](O)CC(=O)O)cc4C(F)(F)F)c3C)c2C)c(Cl)cc1CNC[C@@H](O)CC(=O)O` [Example 357, (S)-4-((4-((3′-((4-((((S)-3-carboxy-2-hydroxypropyl)amino)methyl)-2-chloro-5-methoxyphenoxy)methyl)-2,2′-dimethyl-[1,1′-biphenyl]-3-yl)methoxy)-2-methoxy-5-(trifluoromethyl)benzyl)amino)-3-hydroxybutanoic acid], the IC50 at PD-1/PD-L1 was 0.358 nM. Also, on PD-1/PD-L1 interaction, the EC50 turned out to be 202 nM. In addition, the AC50 at PD-L1 was not below 10000 nM.
For `CNCc1cccc(-c2cccc(-c3cccc(COc4cc(OCc5cncc(C#N)c5)c(CN[C@@](C)(CO)C(=O)O)cc4Cl)c3C)c2C)c1` [Example 358, (S)-2-((5-chloro-2-((5-cyanopyridin-3-yl)methoxy)-4-((2,2′-dimethyl-3″-((methylamino)methyl)-[1,1′:3′,1″-terphenyl]-3-yl)methoxy)benzyl)amino)-3-hydroxy-2-methylpropanoic acid], the IC50 on PD-1/PD-L1 was 0.137 nM. For the same compound, the EC50 on PD-1/PD-L1 interaction worked out at 2090 nM. Also, the AC50 at PD-L1 came out at 100 nM.
For the compound `Cc1c(COc2cc(OCc3cncc(C#N)c3)c(CNC[C@@H](O)CC(=O)O)cc2Cl)cccc1-c1cccc(-c2ccc3c(CNC[C@@H](O)CC(=O)O)ccc(Cl)c3c2)c1C` [Example 359, (S)-4-(((6-(3′-((4-((((S)-3-carboxy-2-hydroxypropyl)amino)methyl)-2-chloro-5-((5-cyanopyridin-3-yl)methoxy)phenoxy)methyl)-2,2′-dimethyl-[1,1′-biphenyl]-3-yl)-4-chloronaphthalen-1-yl)methyl)amino)-3-hydroxybutanoic acid], at PD-1/PD-L1, the IC50 was 2.11 nM. Also, the EC50 at PD-1/PD-L1 interaction came out at 216 nM. For the same compound, the AC50 on PD-L1 came to 540 nM.
For `Cc1c(COc2cc(OCc3cncc(C#N)c3)c(CN[C@@](C)(CO)C(=O)O)cc2Cl)cccc1-c1cccc(-c2ccc(CNCCc3c[nH]cn3)cc2)c1C` [Example 360, (S)-2-((4-((4″-(((2-(1H-imidazol-4-yl)ethyl)amino)methyl)-2,2′-dimethyl-[1,1′:3′,1″-terphenyl]-3-yl)methoxy)-5-chloro-2-((5-cyanopyridin-3-yl)methoxy)benzyl)amino)-3-hydroxy-2-methylpropanoic acid], the IC50 at PD-1/PD-L1 is 1.12 nM. The EC50 on PD-1/PD-L1 interaction is 520 nM. Further, the AC50 at PD-L1 amounted to 224 nM.
The corresponding values for `Cc1c(COc2cc(OCc3cncc(C#N)c3)c(CN[C@@](C)(CO)C(=O)O)cc2Cl)cccc1-c1cccc(-c2ccc(CN[C@H]3CC[C@H](O)CC3)cc2)c1C` [Example 361, (S)-2-((5-chloro-2-((5-cyanopyridin-3-yl)methoxy)-4-((4″-((((1r,4r)-4-hydroxycyclohexyl)amino)methyl)-2,2′-dimethyl-[1,1′:3′,1″-terphenyl]-3-yl)methoxy)benzyl)amino)-3-hydroxy-2-methylpropanoic acid] are 0.13 nM, 314 nM and 138 nM.

(Values after US12590062B2, “PD-1/PD-L1 inhibitors” (Gilead Sciences, Inc., priority 2017, dated 2026).)
